According to US8404847B2, “Method for producing diamine derivative” (Daiichi Sankyo Company, Limited, priority 2008, dated 2013):

What was measured:
[1] = Stability of compound B under dissolution conditions with varying amounts of TsOH.H2O (Test Example 2); type: physicochemical; conditions: ethanol having a water content of 30%, 70° C.
Protocol: FIG. 2 depicts time-dependent (hr; abscissa) change in the amount of compound B (%; ordinate) with the initial (0 hr) amount of compound B defined as 100%.
The stability of compound B was determined using varying amounts of TsOH.H2O under conditions for dissolving compound B in a solvent (ethanol having a water content of 30%, 70° C.). Specifically, 7 ml of ethanol having a water content of 30% and TsOH.H2O were added in combinations shown below to 1.0 g of compound B, followed by dissolution at 70° C. The content of the compound B was measured at constant time intervals by HPLC (column: Shiseido CAPCELL PAK CN UG120 (4.6×250 mm), column temperature: 40° C., flow rate: 1.0 ml/min., mobile phase: acetonitrile:0.02 M phosphate buffer (pH 7.0)=30:70).

[2] = Solubility of compound A under crystallization conditions with varying amounts of TsOH.H2O (Test Example 1); type: physicochemical; conditions: ethanol having a water content of 10%, 10° C.
Protocol: The ordinate depicts the solubility (mg/ml) of compound A, and the abscissa depicts the molar equivalent of p-toluenesulfonic acid monohydrate (vs. compound B).
The solubility of compound A was determined using varying amounts of TsOH.H2O under conditions for crystallizing compound A (ethanol having a water content of 10%, 10° C.). Specifically, compound A, compound B, and TsOH.H2O were added in the combinations shown below to 10 ml of ethanol having a water content of 10%. The resulting slurry was stirred at 10° C., and crystals were collected by filtration. Then, the content of the compound A contained in the filtered mother liquor was measured by HPLC (column: Shiseido CAPCELL PAK CN UG120 (4.6×250 mm), column temperature: 40° C., flow rate: 1.0 ml/min., mobile phase: acetonitrile:0.02 M phosphate buffer (pH 7.0)=30:70).

decomposition of compound B (decrease in compound B content) ([1]; TsOH.H2O at less than 1.0 molar equivalent (vs. compound B)) | decomposition of compound B (decrease in compound B content) ([1]; TsOH.H2O at more than 1.0 molar equivalent (vs. compound B)) | solubility of compound A ([2]; TsOH.H2O larger than 1.00 molar equivalent with respect to compound B) | solubility of compound A ([2]; TsOH.H2O smaller than 1.00 molar equivalent with respect to compound B) | SMILES
suppressed | promoted with the excess |  |  | CN1CCc2nc(C(=O)N[C@@H]3C[C@@H](C(=O)N(C)C)CC[C@@H]3NC(=O)C(=O)Nc3ccc(Cl)cn3)sc2C1 [compound B, N^1-(5-chloropyridin-2-yl)-N^2-((1S,2R,4S)-4-[(dimethylamino)carbonyl]-2-{[(5-methyl-4,5,6,7-tetrahydrothiazolo[5,4-c]pyridin-2-yl)carbonyl]amino}cyclohexyl)ethanediamide]
 |  | reduced | increased | CN1CCc2nc(C(=O)N[C@@H]3C[C@@H](C(=O)N(C)C)CC[C@@H]3NC(=O)C(=O)Nc3ccc(Cl)cn3)sc2C1.Cc1ccc(S(=O)(=O)O)cc1.O [compound A, N^1-(5-chloropyridin-2-yl)-N^2-((1S,2R,4S)-4-[(dimethylamino)carbonyl]-2-{[(5-methyl-4,5,6,7-tetrahydrothiazolo[5,4-c]pyridin-2-yl)carbonyl]amino}cyclohexyl)ethanediamide p-toluenesulfonic acid monohydrate]
